# Reference: US20260125371A1, “METHOD FOR INHIBITING CLOSTRIDIOIDES DIFFICILE SPORE GERMINATION” (UNIVERSITY OF NOTRE DAME DU LAC, priority 2022, published 2026)
# “Also recorded” adds a separate entry of the source. Read-outs that look alike come from different tables or passages of the source.
# Legend:
# THP-1 cells = assay: Lactate dehydrogenase (LDH) cytotoxicity assay; format: cell-based, human; settings: for IC50: Homo sapiens, read-out: LDH (IC50)
# C. difficile ATCC 43255 [1] = assay: Determination of minimal-inhibitory concentrations (microdilution), C. difficile ATCC 43255; format: cell-based, Clostridioides difficile; settings: for MIC C. difficile: Table 1; for MIC: Clostridioides difficile; for ATCC43255 MIC: C. difficile ATCC43255
# S. aureus = assay: MIC against S. aureus strains; format: cell-based; settings: S. aureus ATCC 29213, 24 h; for MIC: Staphylococcus aureus, ATCC29213, 24 h, read-out: MIC (μg/mL) 24 h
# [2] = test system: C. difficile strain ATCC43255 spores; assay: Spore germination inhibition assay; format: cell-based, Clostridioides difficile; settings: compound 45 μM, germinant 6 mM taurocholate and 12 mM glycine, OD600 over 60 min, duplicate; for inhibition at 45 µM: Clostridioides difficile, 1 h
# C. difficile ATCC 43255 [3] = format: cell-based, Clostridioides difficile
# [4] = test system: Fusobacterium nucleatum HM-992; settings: cited from earlier work
# [5] = test system: Bacteroides fragilis HM-709; settings: cited from earlier work
# C. difficile ATCC 43255 [6] = assay: Minimal-bactericidal concentration (MBC); format: cell-based, Clostridioides difficile
# K. pneumoniae ATCC700603 = assay: MIC against K. pneumoniae; format: cell-based; settings: Klebsiella pneumoniae, ATCC700603
# Gram-negative bacteria = format: cell-based
# [7] = test system: Clostridioides difficile infection; settings: CDI patients; cited from earlier work
# P. aeruginosa ATCC27853 = assay: MIC against P. aeruginosa; format: cell-based; settings: Pseudomonas aeruginosa, ATCC27853
# [8] = test system: Lactobacillus gasseri HM-644; settings: cited from earlier work
# [9] = test system: C. difficile ATCC 43255 vegetative cells; assay: Mode of action by scanning electron microscopy (SEM); settings: 8× MIC for 24 h
# A. baumanii ATCC17961 = assay: MIC against A. baumanii; format: cell-based; settings: Acinetobacter baumannii, ATCC17961
# [10] = test system: extended panel of Gram-positive bacteria; assay: MIC range over extended panel of Gram-positive bacteria; format: cell-based
# E. aerogenes ATCC35029 = assay: MIC against E. aerogenes; format: cell-based; settings: Klebsiella aerogenes, ATCC35029
# Veillonella sp. HM-49 = settings: cited from earlier work
# [11] = test system: Lactobacillus reuteri HM-102; settings: cited from earlier work
# E. coli ATCC25922 = assay: MIC against E. coli; format: cell-based; settings: Escherichia coli, ATCC25922
# [12] = test system: Bifidobacterium longum HM-846; settings: cited from earlier work
# [13] = C. difficile ATCC 43255, 48-h incubation
# [14] = ATCC43255, C. difficile ATCC43255, read-out: ATCC43255 MIC
# [15] = ATCC43255, 24 h, C. difficile ATCC 43255, 24 h, read-out: MIC (μg/mL) 24 h
# [16] = ATCC43255, Table 1, strain ATCC 43255, read-out: MIC C. difficile
compound,measurement,setting,value
Oc1ccc(-c2nc(-c3ccc(Oc4ccc(C(F)(F)F)cc4)cc3)no2)cc1F [Compound 10],LDH (IC50),"THP-1 cells; THP-1 cells, 24 h",5.2 ± 0.02 µg/mL
same,MIC (μg/mL) 48 h,C. difficile ATCC 43255 [1]; [13],4 µg/mL
same,MIC (μg/mL) 24 h,"C. difficile ATCC 43255 [1]; C. difficile ATCC 43255, 24 h",4 µg/mL
same,MIC C. difficile,C. difficile ATCC 43255 [1]; strain ATCC 43255,4 µg/mL
same,MIC (μg/mL) 24 h,S. aureus,2 µg/mL
Oc1ccc(-c2nc(-c3ccc(Oc4ccccc4CBr)cc3)no2)cc1 [MAB-02-59A],inhibition at 45 µM,[2],30 ± 3%
same,MIC,C. difficile ATCC 43255 [1]; [14],> 128 µg/mL
Oc1c(F)cc(-c2nc(-c3ccc(Oc4ccc(C(F)(F)F)cc4)cc3)no2)cc1F [Compound 11],LDH (IC50),"THP-1 cells; THP-1 cells, 24 h",18 ± 2 µg/mL
same,MIC (μg/mL) 48 h,C. difficile ATCC 43255 [1]; [13],4 µg/mL
same,MIC (μg/mL) 24 h,"C. difficile ATCC 43255 [1]; C. difficile ATCC 43255, 24 h",4 µg/mL
same,MIC C. difficile,C. difficile ATCC 43255 [1]; strain ATCC 43255,4 µg/mL
same,MIC (μg/mL) 24 h,S. aureus,2 µg/mL
NCc1ccc(-c2noc(-c3ccnc(-c4ccc(C(F)(F)F)cc4)c3)n2)cc1 [YQ-4-161],inhibition at 45 µM,[2],55 ± 1%
same,MIC,C. difficile ATCC 43255 [1]; [14],> 128 µg/mL
O=[N+]([O-])c1c[nH]nc1-c1nc(-c2ccc(Oc3ccc(C(F)(F)F)cc3)cc2)no1 [Compound 30],LDH (IC50),"THP-1 cells; THP-1 cells, 24 h",21 ± 5 µg/mL
same,MIC (μg/mL) 48 h,C. difficile ATCC 43255 [1]; [13],4 µg/mL
same,MIC (μg/mL) 24 h,"C. difficile ATCC 43255 [1]; C. difficile ATCC 43255, 24 h",4 µg/mL
same,MIC C. difficile,C. difficile ATCC 43255 [1]; strain ATCC 43255,4 µg/mL
same,MIC (μg/mL) 24 h,S. aureus,2 µg/mL
"Cl.NCc1ccc(-c2nc(-c3ccc(Oc4ccc(C(F)(F)F)cc4)cc3)no2)cc1 [Compound 17, (4-(3-(4-(4-(Trifluoromethyl)phenoxy)phenyl)-1,2,4-oxadiazol-5-yl)phenyl) methanamine hydrochloride salt]",IC50,"THP-1 cells; THP-1 cells, 24 h",4.4 ± 0.7 µg/mL
same,MIC,C. difficile ATCC 43255 [1]; [15],4 µg/mL
same,MIC,C. difficile ATCC 43255 [1]; [16],4 µg/mL
same,MIC,S. aureus,2 to 4 µg/mL
NCc1ccc(-c2nc(-c3ccc(Oc4ccc(F)c(F)c4)cn3)no2)cc1 [YQ-4-99],inhibition at 45 µM,[2],44 ± 3%
same,MIC,C. difficile ATCC 43255 [1]; [14],8 µg/mL
Oc1ccc(-c2nc(-c3ccc(Oc4ccc(C(F)(F)F)cc4)cc3)no2)cc1 [Compound 9],LDH (IC50),"THP-1 cells; THP-1 cells, 24 h",17 ± 1 µg/mL
same,MIC (μg/mL) 48 h,C. difficile ATCC 43255 [1]; [13],2 µg/mL
same,MIC (μg/mL) 24 h,"C. difficile ATCC 43255 [1]; C. difficile ATCC 43255, 24 h",2 µg/mL
same,MIC C. difficile,C. difficile ATCC 43255 [1]; strain ATCC 43255,2 µg/mL
same,MIC (μg/mL) 24 h,S. aureus,1 µg/mL
"O=[N+]([O-])c1c[nH]nc1-c1nc(-c2ccc(OC(F)(F)F)cc2)no1 [Compound 115, 5-(4-Nitro-1H-pyrazol-3-yl)-3-(4-(trifluoromethoxy)phenyl)-1,2,4-oxadiazole]",IC50,"THP-1 cells; THP-1, 24 h",25 ± 4 µg/mL
same,MIC,C. difficile ATCC 43255 [1]; [15],2 µg/mL
same,MIC,C. difficile ATCC 43255 [1]; [16],4 µg/mL
O=C1CC(c2nc(-c3ccc(Oc4ccc(C(F)(F)F)cc4)cc3)no2)CN1 (stereo not shown) [DR-03-138],inhibition at 45 µM,[2],30 ± 14%
same,MIC,C. difficile ATCC 43255 [1]; [14],> 128 µg/mL
Nc1cc(Oc2ccccc2)cnc1-c1noc(-c2ccc(O)cc2)n1 [MAB-02-27A],inhibition at 45 µM,[2],17 ± 1%
same,MIC,C. difficile ATCC 43255 [1]; [14],> 128 µg/mL
"CN[C@H](CC(C)C)C(=O)N[C@H]1C(=O)N[C@@H](CC(N)=O)C(=O)N[C@H]2C(=O)N[C@H]3C(=O)N[C@H](C(=O)N[C@H](C(=O)O)c4cc(O)cc(O)c4-c4cc3ccc4O)[C@H](O)c3ccc(c(Cl)c3)Oc3cc2cc(c3O[C@@H]2O[C@H](CO)[C@@H](O)[C@H](O)[C@H]2O[C@H]2C[C@](C)(N)[C@H](O)[C@H](C)O2)Oc2ccc(cc2Cl)[C@H]1O [VAN, vancomycin]",increase in MIC on serial passage,C. difficile ATCC 43255 [3],16 fold
same,MIC,[4],0.25 µg/mL
same,MIC,[5],16 µg/mL
same,bactericidal or bacteriostatic,C. difficile ATCC 43255 [6],bacteriostatic
same,MIC,K. pneumoniae ATCC700603,> 128 µg/mL
same,activity against Gram-negative organisms,Gram-negative bacteria,no activity
same,recurrence of infection,[7],24%
same,MIC,P. aeruginosa ATCC27853,> 128 µg/mL
same,MIC,[8],1 µg/mL
same,effect on vegetative cells by SEM,[9],damage the cell wall; also recorded: same effect
same,MIC,A. baumanii ATCC17961,> 128 µg/mL
same,activity against Gram-positive bacteria,[10],has activity
same,MIC,E. aerogenes ATCC35029,> 128 µg/mL
same,MIC,Veillonella sp. HM-49,>32 µg/mL
same,MIC,[11],>32 µg/mL
same,MIC,E. coli ATCC25922,> 128 µg/mL
same,MIC,[12],0.25 µg/mL
"Oc1ccc(-c2nc(-c3ccc(OC4CCCC=C4Br)cc3)no2)cc1 (stereo not shown) [Compound 99, 4-(3-(4-((2-Bromocyclohex-2-en-1-yl)oxy)phenyl)-1,2,4-oxadiazol-5-yl)phenol]",IC50,"THP-1 cells; THP-1, 24 h",8.4 ± 0.3 µg/mL
same,MIC,C. difficile ATCC 43255 [1]; [15],2 µg/mL
same,MIC,"C. difficile ATCC 43255 [1]; ATCC43255, 48 h, C. difficile ATCC 43255, 48-h incubation, read-out: MIC (μg/mL) 48 h",2 µg/mL
same,MIC,C. difficile ATCC 43255 [1]; [16],2 µg/mL
same,MIC,S. aureus,4 µg/mL
O=[N+]([O-])c1c[nH]nc1-c1nc(-c2ccc(Oc3ccc(C(F)(F)F)cc3)cc2)no1 [DR-04-089],% Spore Germination Inhibition at 45 μM,[2],20 ± 3%
same,ATCC43255 MIC,C. difficile ATCC 43255 [1],>128 µg/mL
O=[N+]([O-])c1ccccc1Oc1ccc(-c2noc(-c3ccc(O)cc3)n2)nc1 [MAB-02-29A],inhibition at 45 µM,[2],26 ± 1%
same,MIC,C. difficile ATCC 43255 [1]; [14],> 128 µg/mL
NCc1ccc(-c2nc(-c3ccnc(Oc4ccc(C(F)(F)F)cc4)c3)no2)cc1 [YQ-4-104],inhibition at 45 µM,[2],74 ± 5%
same,MIC,C. difficile ATCC 43255 [1]; [14],8 µg/mL
O=[N+]([O-])c1cc(-c2nc(-c3ccc(Oc4ccc(C(F)(F)F)cc4)cc3)no2)cnc1O [Compound 16],LDH (IC50),"THP-1 cells; THP-1 cells, 24 h",37 ± 11 µg/mL
same,MIC (μg/mL) 48 h,C. difficile ATCC 43255 [1]; [13],2 µg/mL
same,MIC (μg/mL) 24 h,"C. difficile ATCC 43255 [1]; C. difficile ATCC 43255, 24 h",2 µg/mL
same,MIC C. difficile,C. difficile ATCC 43255 [1]; strain ATCC 43255,2 µg/mL
same,MIC (μg/mL) 24 h,S. aureus,8 µg/mL
NCc1ccc(-c2nc(-c3ccc(OC4CCCCC4)cc3)no2)cc1 [YQ-4-165],inhibition at 45 µM,[2],50 ± 2%
same,MIC,C. difficile ATCC 43255 [1]; [14],8 µg/mL
CC(C)Oc1ccc(-c2noc(-c3ccc(CN)cc3)n2)cc1C(F)(F)F [YQ-4-155],inhibition at 45 µM,[2],33 ± 1%
same,MIC,C. difficile ATCC 43255 [1]; [14],16 µg/mL
NCc1ccc(-c2nc(-c3ccnc(-c4ccc(C(F)(F)F)cc4)c3)no2)cc1 [YQ-4-163],inhibition at 45 µM,[2],68 ± 5%
same,MIC,C. difficile ATCC 43255 [1]; [14],16 µg/mL
NCc1ccc(-c2nc(-c3ccc(OC4CCCC4)cc3)no2)cc1 [YQ-4-81],inhibition at 45 µM,[2],41 ± 1%
same,MIC,C. difficile ATCC 43255 [1]; [14],4 µg/mL
NCCc1ccc(-c2nc(-c3ccc(Oc4ccc(F)cc4)cn3)no2)cc1 [YQ-4-170],inhibition at 45 µM,[2],48 ± 2%
same,MIC,C. difficile ATCC 43255 [1]; [14],8 µg/mL
Oc1ccc(-c2nc(-c3ccc(Oc4ccc(I)cc4)cc3)no2)cc1 [MAB-01-250A],% Spore Germination Inhibition at 45 μM,[2],62 ± 2%
same,ATCC43255 MIC,C. difficile ATCC 43255 [1],>128 µg/mL
NCc1ccc(-c2nc(-c3ccc(Oc4ccc(F)cc4)cc3)no2)cc1 [DR-05-250],inhibition at 45 µM,[2],73 ± 5%
same,MIC,C. difficile ATCC 43255 [1]; [14],> 128 µg/mL
"Oc1ccc(-c2noc(-c3ccc(OC4CCCC4)cc3)n2)cc1 [Compound 137, 5-(4-(Cyclopentyloxy)phenyl)-3-(4-hydroxyphenyl)-1,2,4-oxadiazole]",IC50,"THP-1 cells; THP-1 cells, 24 h",8.5 ± 0.2 µg/mL
same,MIC,C. difficile ATCC 43255 [1]; [15],4 µg/mL
same,MIC,C. difficile ATCC 43255 [1]; [16],4 µg/mL
"O=[N+]([O-])c1c[nH]nc1-c1nc(-c2ccc3oc4ccccc4c3c2)no1 [Compound 118, 3-(Dibenzo[b,d]furan-2-yl)-5-(4-nitro-1H-pyrazol-3-yl)-1,2,4-oxadiazole]",IC50,"THP-1 cells; THP-1, 24 h",9.8 ± 3.3 µg/mL
same,MIC,C. difficile ATCC 43255 [1]; [15],4 µg/mL
same,MIC,C. difficile ATCC 43255 [1]; [16],4 µg/mL
same,MIC,S. aureus,2 µg/mL
